Measured values reported in patent US7282507B2, “Indole derivatives as selective androgen receptor modulators (SARMS)” (Janssen Pharmaceutica N.V., priority 2004, dated 2007).
“And” between values parts separate entries of the source, which are not always exact repeats. Identical values can stand only once.

Tests used:
[1] = target: T1, androgen receptor (AdEasy+rAR, COS-7 cells) (Rattus norvegicus, UniProt P15207); assay: COS-7 Whole-Cell Androgen Receptor Binding Assay, Adenovirus Transduction; details: for inhibition at 3 µM / % Inhibition, COS Binding: concentration of 3000 nM; for IC50: read-out: IC50 (nM), COS Binding
T1 construct: expressed in transfected cells; host or cells: COS-7 cells transduced with adenovirus AdEasy+rAR
T1 sequence (P15207 1-902): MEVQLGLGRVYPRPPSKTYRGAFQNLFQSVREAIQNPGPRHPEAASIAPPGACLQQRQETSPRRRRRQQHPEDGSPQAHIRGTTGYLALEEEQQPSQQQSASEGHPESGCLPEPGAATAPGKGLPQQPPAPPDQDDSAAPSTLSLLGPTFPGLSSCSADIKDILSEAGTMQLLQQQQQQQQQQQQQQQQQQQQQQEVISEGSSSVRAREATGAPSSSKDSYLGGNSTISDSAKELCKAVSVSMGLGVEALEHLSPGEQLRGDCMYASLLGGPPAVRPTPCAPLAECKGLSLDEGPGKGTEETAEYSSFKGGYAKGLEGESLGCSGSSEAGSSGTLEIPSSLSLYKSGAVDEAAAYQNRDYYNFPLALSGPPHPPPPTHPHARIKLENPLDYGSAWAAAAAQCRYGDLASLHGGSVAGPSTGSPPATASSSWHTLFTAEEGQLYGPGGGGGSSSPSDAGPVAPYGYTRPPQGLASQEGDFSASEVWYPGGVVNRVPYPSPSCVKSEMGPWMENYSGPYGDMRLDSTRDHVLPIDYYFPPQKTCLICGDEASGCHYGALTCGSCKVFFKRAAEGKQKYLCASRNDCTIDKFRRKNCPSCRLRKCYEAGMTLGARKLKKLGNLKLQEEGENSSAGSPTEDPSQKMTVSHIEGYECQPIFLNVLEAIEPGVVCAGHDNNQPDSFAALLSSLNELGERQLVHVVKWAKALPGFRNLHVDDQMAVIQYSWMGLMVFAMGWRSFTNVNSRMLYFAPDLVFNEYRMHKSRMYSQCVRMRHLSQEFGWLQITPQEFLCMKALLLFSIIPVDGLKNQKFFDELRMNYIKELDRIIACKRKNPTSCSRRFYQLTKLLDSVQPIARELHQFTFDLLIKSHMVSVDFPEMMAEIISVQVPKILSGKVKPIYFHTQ
Description: COS-7 cells were plated in 96-well plates at 20,000 cells per well, in a solution of DMEM/F12 (GIBCO) containing 10% (v/v) charcoal-treated fetal bovine serum (Hyclone) and lacking phenol red. The cells were then incubated overnight at 37° C. in 5% (v/v) humidified CO2.
Test compound solutions were prepared by diluting the test compound in 100% (v/v) DMSO, if necessary.
Next, 1 mL of DMEM/F12 lacking phenol red was pipetted into each of the wells of a 2-mL 96-well assay block. […] The wells were carefully mixed by pipette.
In a 15 mL or 50 mL sterile centrifuge tube, a dilution in DMEM/F12 of the adenovirus AdEasy+rAR at a moi of 1:50 per well was prepared.
The medium was removed from the 96-well plates by inversion and the plates dried very briefly, inverted, on a sterile towel. As soon as possible after medium removal, 40 μL of the diluted test compound was added to each well, in duplicate. […] The plates were then incubated for 48 hours at 37° C. in 5% (v/v) humidified CO2.
The medium was removed from the above incubated plates by inversion and dried. Each well was then washed with 0.35 mL of 1× PBS. The PBS was then removed from the plates by inversion and the plates dried.
To each well was then added 50 μL of 0.5% (v/v) Triton X-100 (Sigma) in 1× PBS and the plates placed on a rotary shaker for 5 min. The contents of each well were then transferred to an OptiPlate-96 (Packard) scintillation plate. To each well was then added 0.2 mL of Microscint-20 (Packard) and the wells counted on a TopCount (Packard).
Percent inhibition was determined by testing dilutions of the test compound (usually duplicates of 10 μM) in the binding assay. Counts per well were measured and percents of inhibition determined. […] Counts per well were measured and IC50s determined by linear regression.

[2] = target: T2, androgen receptor (AdEasy+rAR, L929 cells) (Rattus norvegicus, UniProt P15207); assay: L929 Androgen Receptor Functional Assay, Adenovirus Transduction; assay type: cell-based; details: for inhibition at 3 µM: L929, antagonist testing with R1881, 3000 nM; for % Activity, L929 androgen receptor functional assay / EC50: agonist testing; for IC50: antagonist testing with R1881; for % Inhibition, L929 androgen receptor functional assay: antagonist testing with R1881, 3000 nM
T2 construct: expressed in transfected cells; host or cells: L929 cells transduced with adenovirus AdEasy+rAR
T2 sequence (P15207 1-902): T1 sequence (P15207 1-902)
Summary of the method: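 Luminescent reporter readout after 48 h at 37 °C: rat AR delivered by adenovirus (AdEasy+rAR, moi 1:500) into L929 cells grown without phenol red in charcoal-treated serum. Antagonist wells also received R1881 (2.5× dilution at 2.5 nM).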

[3] = system: testosterone-enhanced ventral prostate and seminal vesicle weights; assay: Ventral Prostate and Seminal Vesicle Weight in vivo Assay; set-up: species or system rat; details: immature castrated male Sprague Dawley rats, once daily for five days, usually orally 40 mg/kg, with testosterone propionate 2 mg/kg s.c. Further: key: 'active' if the non weight adjusted prostate weight was ≦40 mg or the % Inhibition prostate weight, body weight adjusted was ≧40% @ 2 mg/day dosage; ID50's, if determined, of ≦15 mg/day also indicated an 'active' compound; listed herein as 'inactive' as they did not meet the specified criteria defined above.
Summary of the method: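 Wet weights of ventral prostate and seminal vesicles were taken on day six. Castrated immature male Sprague Dawley rats had received five daily doses of testosterone propionate (2 mg/kg s.c.) together with test compound, typically 40 mg/kg orally. Activity was scored from absolute prostate weight or body-weight-adjusted % inhibition.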

| Compound | inhibition at 3 µM [1] [%] | IC50 [1] | inhibition at 3 µM [2] [%] | % Activity, L929 androgen receptor functional assay ([2]; 3000 nM) [%] | active / inactive: inhibition of testosterone-enhanced prostate weight [3] | % Inhibition, COS Binding ([1]; 3 µM) | % Activity, L929 androgen receptor functional assay ([2]; 3000 nM, 3 µM) | IC50 [2] | % Inhibition, L929 androgen receptor functional assay ([2]; 3 µM) [%] | % Inhibition, COS Binding [1] [%] | EC50 [2] [nM] | % Activity, L929 androgen receptor functional assay ([2]; @ 8000 nM) |
| --- | --- | --- | --- | --- | --- | --- | --- | --- | --- | --- | --- | --- |
| CC(O)(CSCc1cccs1)c1cc2cc([N+](=O)[O-])c(C(F)(F)F)cc2[nH]1 (stereo not shown) [Compound 197] | 86 | > 3000 nM | -26 | 2 | inactive | – | – | – | – | – | – | – |
| CC(O)(CSCC(F)(F)F)c1cc2cc(Cl)c(C(F)(F)F)cc2[nH]1 (stereo not shown) [Compound 190] | 100 | 292 nM | 97 | 1 | active | – | – | – | – | – | – | – |
| CCS(=O)(=O)CC(C)(O)c1[nH]c2cc(C(F)(F)F)c(C#N)cc2c1C (single isomer, unassigned) [Compound 252] | – | > 3000 nM | – | – | active | 68% | 1% | 3100 nM | 65 | – | – | – |
| CCC(O)(CS(=O)(=O)CC(F)(F)F)c1[nH]c2cc(C(F)(F)F)c([N+](=O)[O-])cc2c1Cl (stereo not shown) [Compound 199] | 82 | 310 nM | 59 | 2 | inactive | – | – | – | – | – | – | – |
| C[S+]([O-])CCC(C)(O)c1cc2cc([N+](=O)[O-])c(C(F)(F)F)cc2[nH]1 (mixture of isomers) [Compound 50] | – | – | – | 2 | inactive | – | – | – | – | 7 | – | – |
| CCS(=O)(=O)CC(C)(O)c1cc2cc(C#N)c(C(F)(F)F)cc2[nH]1 (single isomer, unassigned) [Compound 222, 2-(2-Ethanesulfonyl-1-hydroxy-1-methyl-ethyl)-6-trifluoromethyl-1H-indole-5-carbonitrile] | 42 | 1580 nM | 61 | – | active | – | – | 2410 nM | – | – | > 8000 | 0 @ 8000 nM % |
| CN(C)c1ccccc1SCC(C)(O)c1cc2cc(Cl)c(C(F)(F)F)cc2[nH]1 (stereo not shown) [Compound 127] | – | > 1200 nM | – | −5 | inactive | 41% and 74% | – | – | – | – | – | – |
| CC(O)(CSc1ccccc1N)c1cc2cc(Cl)c(C(F)(F)F)cc2[nH]1 (stereo not shown) [Compound 123] | – | > 3000 nM | – | −4 | inactive | – | – | – | – | – | – | 1 @ 8000 nM % |
| CC(O)(CSCC(F)(F)F)c1[nH]c2cc(C(F)(F)F)c([N+](=O)[O-])cc2c1I (stereo not shown) [Compound 213] | 71 | > 600 nM | 92 | – | active | – | – | 372 nM | – | – | > 8000 | −1 @ 8000 nM % |
| CC(O)(CSCC(F)(F)F)c1cc2cc([N+](=O)[O-])c(C(F)(F)F)cc2[nH]1 (single isomer, unassigned) [Compound 202] | – | – | – | – | active | 50% | 1% | – | – | – | – | – |
| CCSCC(C)(O)c1cc2cc(F)c(C(F)(F)F)cc2[nH]1 (racemic) [Compound 206] | – | – | – | – | active | −40% | 5% | – | – | – | – | – |
| CCS(=O)(=O)CC(C)(O)c1[nH]c2cc(C(F)(F)F)c(C#N)cc2c1C (single isomer, unassigned) [Compound 251, 2-(2-Ethanesulfonyl-1-hydroxy-1-methyl-ethyl)-3-methyl-6-trifluoromethyl-1H-indole-5-carbonitrile] | 85 | 220 nM | – | – | active | – | −1% | 200 nM | – | – | – | – |
| CCSCC(C)(O)c1[nH]c2cc(C(F)(F)F)c(C#N)cc2c1C (single isomer, unassigned) [Compound 233, 2-(2-Ethylsulfanyl-1-hydroxy-1-methyl-ethyl)-3-methyl-6-trifluoromethyl-1H-indole-5-carbonitrile] | – | 45.6 nM | 97 | – | active | 95% and 81% | 0% | 69.2 nM | – | – | – | – |
| CCC(O)(CSCC(F)(F)F)c1cc2cc([N+](=O)[O-])c(C(F)(F)F)cc2[nH]1 (stereo not shown) [Compound 185] | 92 | 61 nM | 97 | 2 | active | – | – | – | – | – | – | – |
| CCSCC(C)(O)c1cc2cc([N+](=O)[O-])c(C(F)(F)F)cc2n1C (single isomer, unassigned) [Compound 231] | 73 | 665 nM and > 3000 nM | – | – | active | 78% | 0% and −1% | 3180 nM | – | – | – | – |
| CCSCC(C)(O)c1cc2cc(C#N)c(C(F)(F)F)cc2[nH]1 (stereo not shown) [Compound 209] | 61 | 1840 nM | – | – | active | – | – | 372 nM | – | – | > 8000 | −3 @ 8000 nM % |
| CCSCC(C)(O)c1cc2cc(Br)c(C(F)(F)F)cc2[nH]1 (stereo not shown) [Compound 220] | – | 34 nM | 103 | −3 | inactive | – | – | – | – | – | – | – |
| CCSCC(C)(O)c1cc2cc(C#N)c(C(F)(F)F)cc2[nH]1 (single isomer, unassigned) [Compound 217, 2-(2-Ethylsulfanyl-1-hydroxy-1-methyl-ethyl)-6-trifluoromethyl-1H-indole-5-carbonitrile] | – | – | 87 | 5 | active | 38% and 61% and 69% | – | 969 nM and 415 nM and 810 nM | 80 | – | > 8000 | 0 @ 8000 nM % |
| CCSCC(C)(O)c1cc2cc([N+](=O)[O-])cc(C(F)(F)F)c2[nH]1 (stereo not shown) [Compound 212] | 86 | 98 nM | 101 | −3 | active | – | – | – | – | – | – | – |
